Test systems include A498 renal; A549 NSCLC; M14 melanoma; NCI-H226 lung; NCI-H460 lung; OVCAR-3 ovarian; RXF 393 renal; SNB-19 CNS; TK-10 renal; UO-31 renal.
What all share (experiment): NCI-60 cell line screen, 48 h

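All cell lines were grown in 96-well plates and treated with compound for 48 hours. At the GI50, growth is halved. TGI: concentration producing complete growth inhibition.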

Take `C=C1C(=O)O[C@H]2[C@H]1CC/C(COC(=O)/C=C\C(=O)NCc1ccc(Cn3c(=O)sn(-c4ccc(C#N)cc4)c3=O)cc1)=C\CC[C@@]1(C)O[C@@H]21`: the GI50 is 0.769 µM in the test with A498 renal; 0.916 µM in the test on A549 NSCLC; 0.699 µM with M14 melanoma; 1.36 µM with NCI-H226 lung; 0.844 µM in the test with NCI-H460 lung; 0.306 µM in the test on OVCAR-3 ovarian. Moreover, the GI50 in the test with RXF 393 renal was 0.576 µM; in the test on SNB-19 CNS, 0.969 µM; in the test with TK-10 renal it was 0.888 µM; in the test with UO-31 renal, 0.468 µM. For the same compound, the TGI in the test on A498 renal came out at 1.55 µM; with A549 NSCLC it was 2.42 µM; in the test on M14 melanoma, 1.66 µM; in the test on NCI-H226 lung it was 5.63 µM; with NCI-H460 lung, 1.83 µM; with OVCAR-3 ovarian, 0.953 µM. Besides, the TGI is 1.22 µM in the test with RXF 393 renal, 2.27 µM in the test with SNB-19 CNS, 1.61 µM with TK-10 renal and 1.07 µM in the test on UO-31 renal.
With `COc1ccc(-c2nc(-c3nc4ccc(C)cc4[nH]3)c3ccccn23)cc1`, the GI50 in the test with A498 renal was 2.47 µM; with A549 NSCLC, 2.67 µM; in the test on M14 melanoma it was 3.15 µM; in the test on NCI-H226 lung, 3.88 µM; in the test on NCI-H460 lung, 2.28 µM; in the test with OVCAR-3 ovarian, 2.99 µM. For the same compound, the GI50 in the test on RXF 393 renal is 7.73 µM; in the test with SNB-19 CNS, 2.97 µM; with TK-10 renal it was 3.39 µM; with UO-31 renal, 1.67 µM. Further, the TGI was 9.65 µM in the test with A498 renal; over 100 µM in the test with A549 NSCLC; 8.6 µM in the test with M14 melanoma; over 100 µM in the test with NCI-H226 lung; 6.11 µM in the test on NCI-H460 lung; 10.2 µM in the test on OVCAR-3 ovarian. Also, the TGI in the test with RXF 393 renal was over 100 µM; with SNB-19 CNS it was over 100 µM; with TK-10 renal, 9.22 µM; in the test with UO-31 renal, 6.09 µM.
For the compound `CSc1nc(NC2OC(COC(C)=O)C(OC(C)=O)C(OC(C)=O)C2OC(C)=O)c2c(OC(C)=O)c(C)c(=O)oc2n1` (centres undefined), the TGI in the test on A498 renal, with A549 NSCLC, in the test with M14 melanoma, with NCI-H226 lung, in the test with NCI-H460 lung and with OVCAR-3 ovarian was over 100 µM each time. Also, the TGI with RXF 393 renal, in the test with SNB-19 CNS, in the test on TK-10 renal and in the test on UO-31 renal was over 100 µM each time.
Take `CNC=O.[O]=[Ge].[O]=[Ge].[O]=[Ge].[O]=[Ge][OH].[O]=[Ge][OH]`: the TGI in the test with A498 renal, in the test with A549 NSCLC, in the test with M14 melanoma, in the test on NCI-H226 lung, in the test with NCI-H460 lung and with OVCAR-3 ovarian was over 100 µM each time. The TGI in the test with RXF 393 renal, in the test with SNB-19 CNS, with TK-10 renal and in the test with UO-31 renal was over 100 µM each time.
As to `CCC(C)(O)c1cn(-c2cccc(S(=O)(=O)O)c2)nn1` (centres undefined), the TGI in the test on A498 renal, in the test on A549 NSCLC, in the test with M14 melanoma, in the test on NCI-H226 lung, in the test on NCI-H460 lung and with OVCAR-3 ovarian was over 100 µM each time. The TGI with RXF 393 renal, in the test on SNB-19 CNS, in the test with TK-10 renal and in the test on UO-31 renal was over 100 µM in each case.
Consider `Cc1[nH]c(N=Nc2ccccc2)nc1N=Nc1ccccc1`, for which the GI50 with A498 renal was 5.1 µM; in the test on A549 NSCLC it was 2.86 µM; in the test with M14 melanoma, 2 µM; in the test on NCI-H226 lung, 2.7 µM; in the test on NCI-H460 lung it was 2.37 µM; with OVCAR-3 ovarian, 2.6 µM. In addition, the GI50 in the test with RXF 393 renal was 0.552 µM; in the test on SNB-19 CNS, 3.63 µM; in the test with TK-10 renal, 1.85 µM; with UO-31 renal it was 1.34 µM. Further, the TGI with A498 renal is 25.6 µM; with A549 NSCLC, 12 µM; with M14 melanoma, 4.49 µM; in the test on NCI-H226 lung it was 12.4 µM; with NCI-H460 lung, 8.09 µM; with OVCAR-3 ovarian, 16.1 µM. Further, the TGI in the test on RXF 393 renal is 3.43 µM; in the test with SNB-19 CNS it was over 87.7 µM; in the test with TK-10 renal it was over 32.9 µM; in the test on UO-31 renal, 13 µM.
Turning to `CC12CCCC(CC(=O)c3[nH]c4ccccc4c31)C2` (centres undefined), the GI50 in the test on A498 renal was 0.483 µM; in the test with A549 NSCLC, 2.26 µM; in the test with M14 melanoma it was 0.399 µM; with NCI-H226 lung, 4.23 µM; in the test with NCI-H460 lung, 1.58 µM; in the test with OVCAR-3 ovarian it was 0.384 µM. Also, the GI50 in the test with RXF 393 renal is 0.629 µM; in the test on SNB-19 CNS it was 1.48 µM; with TK-10 renal, 14.6 µM; with UO-31 renal, 2.4 µM. Also, the TGI was 4 µM in the test on A498 renal; over 55.9 µM in the test on A549 NSCLC; 17.3 µM in the test with M14 melanoma; 33.3 µM with NCI-H226 lung; 19.7 µM with NCI-H460 lung; 2.61 µM in the test with OVCAR-3 ovarian. Besides, the TGI in the test on RXF 393 renal is 4.88 µM; in the test on SNB-19 CNS, over 100 µM; in the test with TK-10 renal, over 90.4 µM; in the test on UO-31 renal, over 100 µM.
As for `O=C(NC1CCCCCC1)C1C(=O)N(C2CCCCCC2)C(=O)/C1=N\O` (centres undefined), the TGI was 80.4 µM in the test on A498 renal; over 100 µM with A549 NSCLC; over 100 µM in the test on M14 melanoma; over 100 µM in the test with NCI-H226 lung; over 100 µM in the test on NCI-H460 lung; 37.6 µM in the test with OVCAR-3 ovarian. The TGI in the test with RXF 393 renal is 48.2 µM; with SNB-19 CNS it was over 100 µM; in the test with TK-10 renal, 94.3 µM; in the test with UO-31 renal, 97.5 µM.
As for `C[C@]12CC[C@@H]3c4ccc(O)cc4C[C@@H](CCCCCCCCCS(=O)CCCC(F)(F)C(F)(F)F)[C@H]3[C@@H]1CC[C@@H]2O` (some centres undefined), the GI50 is over 100 µM in the test on A498 renal; over 69.9 µM in the test with A549 NSCLC; over 100 µM with M14 melanoma; over 100 µM with NCI-H226 lung; over 100 µM with NCI-H460 lung; over 100 µM in the test with OVCAR-3 ovarian. Besides, the GI50 with RXF 393 renal was over 78.1 µM; in the test on SNB-19 CNS it was over 100 µM; in the test on TK-10 renal it was over 51.8 µM; with UO-31 renal, over 100 µM. Also, the TGI in the test with A498 renal, in the test with A549 NSCLC, in the test on M14 melanoma, in the test with NCI-H226 lung, in the test with NCI-H460 lung and in the test with OVCAR-3 ovarian was over 100 µM throughout. The TGI in the test on RXF 393 renal, in the test on SNB-19 CNS, in the test with TK-10 renal and with UO-31 renal was over 100 µM throughout.
As for `COC(=O)CSc1n[nH]c(-c2ccc(O)c([N+](=O)[O-])c2)n1`, the TGI with A498 renal, in the test on A549 NSCLC, with M14 melanoma, with NCI-H226 lung, with NCI-H460 lung and in the test on OVCAR-3 ovarian was over 100 µM in each case. The TGI with RXF 393 renal, in the test on SNB-19 CNS, in the test with TK-10 renal and with UO-31 renal was over 100 µM each time.
`Cc1ccc(C(=O)/C=C/c2ccccc2O)c(C)c1`: the TGI with A498 renal, in the test with A549 NSCLC, in the test on M14 melanoma, in the test with NCI-H226 lung, in the test on NCI-H460 lung and in the test with OVCAR-3 ovarian was over 100 µM each time. Moreover, the TGI with RXF 393 renal, in the test on SNB-19 CNS, with TK-10 renal and in the test with UO-31 renal was over 100 µM each time.
For the compound `NCCCCn1c2c(c3ccccc3c1=O)C(=O)c1ccccc1-2`, the GI50 with A498 renal was 0.543 µM; in the test on A549 NSCLC, 0.0263 µM; in the test on M14 melanoma, 0.417 µM; in the test on NCI-H226 lung, 0.107 µM; in the test with NCI-H460 lung, under 0.0218 µM; in the test on OVCAR-3 ovarian, 0.502 µM. In addition, the GI50 in the test with RXF 393 renal is 0.644 µM; in the test on SNB-19 CNS, 0.389 µM; in the test on TK-10 renal, 0.226 µM; in the test on UO-31 renal, 0.123 µM. For the same compound, the TGI in the test with A498 renal stood at 1.71 µM; in the test with A549 NSCLC, 0.361 µM; in the test on M14 melanoma, 1.86 µM; in the test with NCI-H226 lung, 0.458 µM; in the test on NCI-H460 lung, 0.614 µM; with OVCAR-3 ovarian, 4.22 µM. Further, the values for the TGI with SNB-19 CNS, in the test on TK-10 renal and in the test on UO-31 renal were 12.2 µM, 1.25 µM and 1.45 µM, respectively.
For `CC(=O)NC(CCCN)C(=O)NCc1ccccc1` (centres undefined), the TGI in the test on A498 renal, with A549 NSCLC, with M14 melanoma, in the test with NCI-H226 lung, in the test on NCI-H460 lung and in the test with OVCAR-3 ovarian was over 100 µM each time. In addition, the TGI in the test with RXF 393 renal, in the test with SNB-19 CNS, in the test with TK-10 renal and in the test with UO-31 renal was over 100 µM throughout.
`COc1cc2c3c(n(CCCBr)c(=O)c2cc1OC)-c1ccc(NC(C)=O)cc1C3=O`: the GI50 in the test on A498 renal was 2.69 µM; in the test with A549 NSCLC, 25.4 µM; in the test with M14 melanoma it was 4.33 µM; with NCI-H226 lung, 5.17 µM; in the test on NCI-H460 lung, 0.506 µM; in the test with OVCAR-3 ovarian, 4.37 µM. Besides, the GI50 was 13.3 µM with RXF 393 renal, 3.19 µM in the test with SNB-19 CNS, 19.7 µM in the test on TK-10 renal and 5.68 µM in the test with UO-31 renal. The TGI in the test on A498 renal was 8.47 µM; in the test with A549 NSCLC it was over 100 µM; in the test with M14 melanoma it was 20.6 µM; in the test with NCI-H226 lung it was 57.3 µM; with NCI-H460 lung it was 7.31 µM; with OVCAR-3 ovarian, 24.9 µM. Besides, the TGI in the test on RXF 393 renal was 38.2 µM; with SNB-19 CNS, over 100 µM; in the test on TK-10 renal, over 100 µM; in the test on UO-31 renal it was 65 µM.

The record behind these values is PubChem BioAssay (NCI).
